In patent US20110105626A1, “USE OF CYCLOHEXANEHEXOL DERIVATIVES FOR THE TREATMENT OF POLYGLUTAMINE DISEASES” (priority 2007, published 2011):
Entries after “also recorded” stand apart in the source; their conditions may differ.

Columns and labels:
Type in all cases: cell-based
HttQ103P-EGFP = target: T1, HttQ103P-EGFP (Homo sapiens, UniProt P42858); experiment: Aggregation of HttQ103P-EGFP in inducible PC-12 cells (visual counts by fluorescent microscopy)
T1 construct: expressed in transfected cells; host or cells: PC-12 cells, stably transfected, pIND construct induced with 5 µM ponasterone
T1 sequence (P42858 with tags, fused parts or gaps limits assumed): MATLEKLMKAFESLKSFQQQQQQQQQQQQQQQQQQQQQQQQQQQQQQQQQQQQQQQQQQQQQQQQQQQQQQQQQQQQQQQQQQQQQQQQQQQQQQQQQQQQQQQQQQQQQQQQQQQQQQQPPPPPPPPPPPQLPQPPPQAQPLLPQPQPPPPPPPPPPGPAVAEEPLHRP
Protocol: (§1) Inducible PC-12 cells. PC-12 cells stably transfected with pIND constructs containing HttQ103P-EGFP. The cells upon stimulation with 5 μM ponasterone for 48 hrs express poly-Q protein with a EGFP carboxy-terminal epitope tag (Apostol, B. et al., PNAS 100, 5950-5955, 2003). Chemical Compound screen in PC-12 cells. Cells were plated in 6 well plates and grown overnight, then treated with 5 μM ponasterone for 48 hrs in the presence and absence of cystamine bitartrate or scyllo-inositol. Both were dissolved in water, and added directly to cultures at a final concentration of 1-50 μM and aggregation calculated. Visual counts of aggregates and EGFP-positive cells were performed using fluorescent microscopy. At least 300 cells were counted from 5-6 fields in three wells in each of three independent experiments. Aggregation is expressed as the percentage of cells with aggregates versus total number of EGFP-positive cells. Chemical compound was assessed for cellular toxicity by evaluating cell morphology, trypan blue exclusion and cell viability. Protein Expression. Cells were plated in 6 well plates and grown overnight, then treated with 5 μM ponasterone for 48 hrs in the presence and absence of cystamine bitartrate or scyllo-inositol. Cells were lysed in hypotonic solution containing 20 mM HEPES ph 7.5, 5 mM NaCl, 10 mM NaF, 2 mM EDTA, 1% Nonidet P-40, 1 mM sodium, orthovanadate, and protease inhibitors. Protein concentration was determined using the Bradford assay and 100 μg of protein was used for western blotting. Primary antibody to poly-glutamine was used to detect HttQ103, while GAPDH was used as an internal house-keeping standard. Westerns were scanned and densitometry was used to quantify PolyQ expression.
A hallmark of polyglutamine diseases is the accumulation of intracellular aggregates in the cytosol and nucleus of neurons. Therefore, the inducible PC-12 cell lines were utilized to address the question of inhibition of HttQ103P-EFGP aggregation using scyllo-inositol and a previously identified aggregation inhibitor, cystamine bitartrate. Aggregates are readily distinguished from soluble Htt, by intense small aggregate formation versus diffuse cellular staining pattern of soluble Htt (FIG. 1). Simultaneously with induction of HttQ103P-EFGP expression, scyllo-inositol was added to the cells in a final concentration range from 0-100 μM, with 50 μM cystamine bitartrate as a positive control. Cells were photographed using fluorescence microscopy and total cells expressing EFGP counted, and cells containing aggregates. Efficacy of treatment was determined by a reduction in the percentage of cells containing EGFP aggregates (FIG. 1, 2).

Htt103Q-EGFP = target: T2, Htt103Q-EGFP (Homo sapiens, UniProt P42858); experiment: Western blot of poly-Q protein expression in inducible PC-12 cells, normalized to GAPDH; conditions: for Htt103Q-EGFP protein expression level (western blot): cystamine bitartrate treatment
T2 construct: expressed in transfected cells; host or cells: PC-12 cells, stably transfected, pIND construct induced with 5 µM ponasterone
T2 sequence (P42858 with tags, fused parts or gaps limits assumed): as above
Protocol: as §1
In order to examine changes in Htt103Q-EGFP protein concentration as a function of scyllo-inositol treatment, western blots were used (FIG. 3, 4). Cells were treated as above and then harvested for western blot analyses using a poly-glutamine specific antibody, and normalized to the housekeeping protein, GAPDH (FIG. 3). Blots were scanned and densitometry of each lane performed, to normalize for variations in protein loading pixels were normalized to those of GAPDH.

PC-12 cells = system: PC-12 cells
Protocol: as §1, with “Visual counts of aggregates and EGFP-positive cells were performed using fluorescent microscopy.” left out, “Protein Expression. Cells were plated in 6 well plates and grown overnight, then treated with 5 μM ponasterone for 48 hrs in the presence and absence of cystamine bitartrate or scyllo-inositol. Cells were lysed in hypotonic solution containing 20 mM HEPES ph 7.5, 5 mM NaCl, 10 mM NaF, 2 mM EDTA, 1% Nonidet P-40, 1 mM sodium, orthovanadate, and protease inhibitors.” left out, “Primary antibody to poly-glutamine was used to detect HttQ103, while GAPDH was used as an internal house-keeping standard.” left out
A hallmark of polyglutamine diseases is the accumulation of intracellular aggregates in the cytosol and nucleus of neurons. […] Cells were photographed using fluorescence microscopy and total cells expressing EFGP counted, and cells containing aggregates. […]

Row | SMILES | Aggregation (percentage of cells with aggregates versus total EGFP-positive cells) (HttQ103P-EGFP; 50 μM cystamine bitartrate as positive control, added simultaneously with induction) | Htt103Q-EGFP protein expression level (western blot) (Htt103Q-EGFP) | Htt103Q-EGFP protein expression level (western blot) (Htt103Q-EGFP; listed as Cystamine bitratrate) | Concentrations at which aggregation of poly-Q repeat Htt is decreased (HttQ103P-EGFP; inducible PC-12 cells) [µM] | Lowest concentration with significant decrease in the formation of aggregates (HttQ103P-EGFP; inducible PC-12 cells, FIG. 2) [µM] | Aggregation (percentage of cells with aggregates versus total EGFP-positive cells) (HttQ103P-EGFP; scyllo-inositol 0-100 μM added simultaneously with induction, 5 μM ponasterone 48 hrs) | Aggregation (percentage of cells with aggregates versus total EGFP-positive cells) (HttQ103P-EGFP; scyllo-inositol 0-100 μM added simultaneously with induction, 5 μM ponasterone 48 hrs, listed as Scyllo-inositol) | Concentrations at which poly-Q (Htt) protein is decreased / mutant Htt degradation is enhanced (Htt103Q-EGFP; inducible PC-12 cells, western blot) [µM] | Htt103Q-EGFP protein concentration (western blot, densitometry) (Htt103Q-EGFP; scyllo-inositol concentration series, normalized to GAPDH) | poly-Q protein expression (Htt103Q-EGFP; scyllo-inositol up to 10 μM concentration) | Cell viability, trypan blue exclusion assay (PC-12 cells) | Morphological examination of cells for changes associated with toxicity (PC-12 cells)
1 | NCCSSCCN.O=C(O)C(O)C(O)C(=O)O (stereo not drawn) [cystamine bitartrate, reference compound] | inhibits aggregate formation; also recorded: aggregated poly-Q is decreased; also recorded: decreased aggregation of poly-Q | no effect on Htt103 cellular protein concentration; also recorded: did not change protein expression levels | did not alter poly-Q protein expression | – | – | – | – | – | – | – | – | –
2 | O[C@H]1[C@H](O)[C@@H](O)[C@H](O)[C@@H](O)[C@@H]1O [scyllo-inositol] | – | – | – | 1 to 100 | 1 | concentration dependent effect of decreased aggregation | concentration dependent decrease in the formation of aggregates | 25 to 100 | concentration dependant decrease in Htt protein; also recorded: decreased the protein concentration | did not alter poly-Q protein expression | no effect on cell viability | did not detect changes associated with toxicity
